{"source": "ChEMBL document CHEMBL1201862", "about": "“PubChem BioAssay data set” (2004)", "key": {"[1]": {"target": "T1, G-protein coupled receptor 35 (Homo sapiens, UniProt Q9HC97)", "T1 sequence (Q9HC97 whole entry)": "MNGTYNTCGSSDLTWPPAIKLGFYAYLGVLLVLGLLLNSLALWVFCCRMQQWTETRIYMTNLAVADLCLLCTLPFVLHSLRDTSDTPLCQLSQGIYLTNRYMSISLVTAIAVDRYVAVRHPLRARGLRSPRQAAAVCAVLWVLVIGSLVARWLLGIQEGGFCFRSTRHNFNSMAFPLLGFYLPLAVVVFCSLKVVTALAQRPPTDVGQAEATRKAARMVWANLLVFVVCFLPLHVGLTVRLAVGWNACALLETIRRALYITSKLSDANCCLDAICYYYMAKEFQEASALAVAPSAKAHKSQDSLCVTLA", "test": "SAR analysis of Agonists of the GPR35 Receptor using an Image-Based Assay - Set 4. [Related pubchem assays (depositor defined):AID2013, AID2026]", "format": "functional"}, "Cannabinoid receptor 1 [2]": {"target": "T2, Cannabinoid receptor 1 (Homo sapiens, UniProt P21554)", "T2 sequence (P21554 whole entry)": "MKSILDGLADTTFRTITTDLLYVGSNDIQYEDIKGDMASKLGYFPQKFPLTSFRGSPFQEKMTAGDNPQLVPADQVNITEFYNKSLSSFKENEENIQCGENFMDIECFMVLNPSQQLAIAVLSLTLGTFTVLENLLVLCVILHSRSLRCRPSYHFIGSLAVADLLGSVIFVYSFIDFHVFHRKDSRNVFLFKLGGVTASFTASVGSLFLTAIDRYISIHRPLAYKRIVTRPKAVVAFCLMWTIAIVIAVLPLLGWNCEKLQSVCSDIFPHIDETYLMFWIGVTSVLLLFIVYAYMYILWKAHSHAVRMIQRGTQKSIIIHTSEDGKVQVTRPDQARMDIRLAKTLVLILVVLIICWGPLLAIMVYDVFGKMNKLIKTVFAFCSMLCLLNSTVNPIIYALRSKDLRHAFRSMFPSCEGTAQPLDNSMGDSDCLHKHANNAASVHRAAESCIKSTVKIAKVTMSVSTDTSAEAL", "test": "SAR analysis of agonists of the Cannabinoid Receptor 1 using an Image-Based Assay - Set 4. [Related pubchem assays (depositor defined):AID2013, AID2026]", "format": "functional"}, "[3]": {"target": "T1, G-protein coupled receptor 35", "test": "SAR analysis of Antagonists of the GPR35 Receptor using an Image-Based Assay - Set 6. [Related pubchem assays (depositor defined):AID2013, AID2026]", "format": "functional"}, "Cannabinoid receptor 1 [4]": {"target": "T2, Cannabinoid receptor 1", "test": "SAR analysis of antagonists of the Cannabinoid Receptor 1 using an Image-Based Assay - Set 4. [Related pubchem assays (depositor defined):AID2013, AID2026]", "format": "functional"}, "[5]": {"target": "G-protein coupled receptor 55 (Homo sapiens, UniProt Q9Y2T6)", "sequence (Q9Y2T6 whole entry)": "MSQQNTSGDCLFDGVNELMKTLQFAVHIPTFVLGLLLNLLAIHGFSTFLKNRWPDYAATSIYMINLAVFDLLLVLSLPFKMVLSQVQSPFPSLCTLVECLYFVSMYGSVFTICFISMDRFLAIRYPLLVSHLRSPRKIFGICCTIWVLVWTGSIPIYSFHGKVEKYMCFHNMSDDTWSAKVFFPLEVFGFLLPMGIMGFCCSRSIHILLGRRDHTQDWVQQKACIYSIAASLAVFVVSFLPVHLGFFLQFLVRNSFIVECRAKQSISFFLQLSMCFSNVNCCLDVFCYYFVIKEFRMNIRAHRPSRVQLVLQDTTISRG", "test": "SAR Analysis of Selective Antagonists of GPR55 using an Image-Based Assay - Set 4. [Related pubchem assays (depositor defined):AID2013, AID2026]", "format": "functional"}, "Cannabinoid receptor 2 [6]": {"target": "T3, Cannabinoid receptor 2 (Homo sapiens, UniProt P34972)", "T3 sequence (P34972 whole entry)": "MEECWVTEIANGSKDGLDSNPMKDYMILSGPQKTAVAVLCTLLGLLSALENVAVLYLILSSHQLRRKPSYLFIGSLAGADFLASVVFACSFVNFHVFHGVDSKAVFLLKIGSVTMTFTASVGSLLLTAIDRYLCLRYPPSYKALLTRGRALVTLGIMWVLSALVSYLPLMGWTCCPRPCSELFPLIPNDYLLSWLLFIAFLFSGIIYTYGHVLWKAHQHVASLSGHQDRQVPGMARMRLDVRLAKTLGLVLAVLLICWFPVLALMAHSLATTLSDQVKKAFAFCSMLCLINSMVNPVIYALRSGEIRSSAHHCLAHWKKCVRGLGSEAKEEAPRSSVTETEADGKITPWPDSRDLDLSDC", "test": "SAR analysis of antagonists of the Cannabinoid Receptor 2 using an Image-Based Assay - Set 3. [Related pubchem assays (depositor defined):AID2013, AID2026]", "format": "functional"}, "Cannabinoid receptor 2 [7]": {"target": "T3, Cannabinoid receptor 2", "test": "SAR analysis of agonists of the Cannabinoid Receptor 2 using an Image-Based Assay - Set 3. [Related pubchem assays (depositor defined):AID2013, AID2026]", "format": "functional"}, "[8]": {"target": "T4, Probable nicotinate-nucleotide adenylyltransferase (Staphylococcus aureus (strain N315), UniProt P65502)", "T4 sequence (P65502 whole entry)": "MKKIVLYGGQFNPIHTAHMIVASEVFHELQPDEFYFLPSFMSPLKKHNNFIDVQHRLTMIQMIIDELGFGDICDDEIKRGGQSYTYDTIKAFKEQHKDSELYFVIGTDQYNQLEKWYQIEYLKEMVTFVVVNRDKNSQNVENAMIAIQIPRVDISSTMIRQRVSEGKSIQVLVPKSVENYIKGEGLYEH", "format": "functional, Staphylococcus aureus subsp. aureus N315"}, "[9]": {"target": "T4, Probable nicotinate-nucleotide adenylyltransferase", "format": "functional, Staphylococcus aureus subsp. aureus N315", "conditions": "read-out: IC50_Mean"}, "[10]": {"target": "T5, Delta-type opioid receptor (Homo sapiens, UniProt P41143)", "T5 sequence (P41143 whole entry)": "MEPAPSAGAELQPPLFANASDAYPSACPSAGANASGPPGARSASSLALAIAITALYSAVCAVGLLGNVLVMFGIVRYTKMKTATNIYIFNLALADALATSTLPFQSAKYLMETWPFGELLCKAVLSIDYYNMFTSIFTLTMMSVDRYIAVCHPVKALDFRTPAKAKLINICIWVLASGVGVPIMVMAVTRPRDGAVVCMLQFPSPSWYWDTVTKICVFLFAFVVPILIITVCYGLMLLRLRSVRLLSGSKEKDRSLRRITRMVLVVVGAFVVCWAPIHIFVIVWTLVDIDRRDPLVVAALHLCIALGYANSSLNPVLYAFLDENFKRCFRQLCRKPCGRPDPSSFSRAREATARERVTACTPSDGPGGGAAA", "test": "HTS Image-Based Screen for Antagonists of the DOR Receptor. [Related pubchem assays (depositor defined):AID1777, AID1785, AID1786, AID2133]", "format": "functional"}, "Mu-type opioid receptor": {"target": "Mu-type opioid receptor (Homo sapiens, UniProt P35372)", "sequence (P35372 whole entry)": "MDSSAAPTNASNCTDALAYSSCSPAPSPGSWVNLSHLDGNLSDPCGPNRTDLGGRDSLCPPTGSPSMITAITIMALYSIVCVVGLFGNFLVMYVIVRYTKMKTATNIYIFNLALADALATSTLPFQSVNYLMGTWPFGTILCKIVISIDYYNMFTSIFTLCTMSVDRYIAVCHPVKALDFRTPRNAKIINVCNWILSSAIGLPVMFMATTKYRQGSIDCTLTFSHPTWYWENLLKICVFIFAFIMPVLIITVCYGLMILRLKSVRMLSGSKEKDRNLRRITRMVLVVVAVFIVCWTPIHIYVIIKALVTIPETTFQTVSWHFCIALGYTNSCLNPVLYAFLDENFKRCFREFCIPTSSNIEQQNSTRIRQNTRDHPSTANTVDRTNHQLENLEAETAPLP", "test": "HTS Image-Based Screen for Agonists of the MOR Receptor. [Related pubchem assays (depositor defined):AID1777, AID1785, AID1786, AID2133]", "format": "functional"}, "[11]": {"target": "T5, Delta-type opioid receptor", "test": "HTS Image-Based Screen for Agonists of the DOR Receptor. [Related pubchem assays (depositor defined):AID1777, AID1786, AID2133]", "format": "functional"}, "[12]": {"target": "T6, Kappa-type opioid receptor (Homo sapiens, UniProt P41145)", "T6 sequence (P41145 whole entry)": "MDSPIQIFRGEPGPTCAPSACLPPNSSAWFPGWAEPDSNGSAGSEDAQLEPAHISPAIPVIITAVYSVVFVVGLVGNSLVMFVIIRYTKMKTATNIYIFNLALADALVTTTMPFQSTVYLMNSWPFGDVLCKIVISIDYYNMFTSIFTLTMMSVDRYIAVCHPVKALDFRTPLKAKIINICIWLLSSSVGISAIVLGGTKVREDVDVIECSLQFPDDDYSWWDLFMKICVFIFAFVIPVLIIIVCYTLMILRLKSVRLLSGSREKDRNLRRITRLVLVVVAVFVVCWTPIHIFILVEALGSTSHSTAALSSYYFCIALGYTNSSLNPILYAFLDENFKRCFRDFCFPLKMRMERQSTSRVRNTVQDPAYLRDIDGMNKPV", "format": "functional"}, "Beta-galactosidase": {"target": "Beta-galactosidase (Escherichia coli, UniProt Q8VNN2)", "sequence (Q8VNN2 whole entry)": "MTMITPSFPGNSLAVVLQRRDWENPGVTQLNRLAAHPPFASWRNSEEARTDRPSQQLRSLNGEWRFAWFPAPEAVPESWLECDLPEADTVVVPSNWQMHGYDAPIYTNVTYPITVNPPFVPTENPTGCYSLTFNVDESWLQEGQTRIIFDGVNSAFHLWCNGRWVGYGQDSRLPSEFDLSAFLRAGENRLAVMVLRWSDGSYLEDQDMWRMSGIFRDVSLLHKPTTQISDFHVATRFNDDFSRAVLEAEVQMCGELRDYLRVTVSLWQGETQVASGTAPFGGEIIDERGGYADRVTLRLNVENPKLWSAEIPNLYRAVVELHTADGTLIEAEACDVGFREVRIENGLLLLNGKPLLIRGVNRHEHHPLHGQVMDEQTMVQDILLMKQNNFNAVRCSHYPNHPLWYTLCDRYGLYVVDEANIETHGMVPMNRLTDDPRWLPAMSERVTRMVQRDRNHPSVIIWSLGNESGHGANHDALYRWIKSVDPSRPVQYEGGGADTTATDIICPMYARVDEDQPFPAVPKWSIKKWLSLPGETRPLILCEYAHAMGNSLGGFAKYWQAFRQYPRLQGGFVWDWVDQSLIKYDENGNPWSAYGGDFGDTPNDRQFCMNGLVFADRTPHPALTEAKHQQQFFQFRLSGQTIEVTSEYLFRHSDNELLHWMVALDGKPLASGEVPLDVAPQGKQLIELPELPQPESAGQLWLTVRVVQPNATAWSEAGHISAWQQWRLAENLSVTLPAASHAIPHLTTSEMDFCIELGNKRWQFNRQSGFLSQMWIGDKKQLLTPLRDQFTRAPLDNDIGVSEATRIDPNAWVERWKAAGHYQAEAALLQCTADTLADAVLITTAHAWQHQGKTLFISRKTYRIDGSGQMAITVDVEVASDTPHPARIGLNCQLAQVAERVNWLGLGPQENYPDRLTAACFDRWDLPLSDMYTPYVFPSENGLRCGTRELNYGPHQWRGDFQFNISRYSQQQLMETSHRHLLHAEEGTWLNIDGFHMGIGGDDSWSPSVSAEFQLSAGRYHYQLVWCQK", "format": "functional"}, "[13]": {"target": "T6, Kappa-type opioid receptor", "format": "functional", "remark": "listed apart in the source"}, "BJ [14]": {"tested_on": "BJ", "test": "cytotoxicity toward BJ-TERT fibroblasts, dose response, cell-based, RAS-independent, luminescence (AID 1933)", "format": "functional", "conditions": "Homo sapiens"}, "BJ [15]": {"tested_on": "BJ", "test": "cells", "format": "functional, cell-based", "conditions": "Homo sapiens"}, "Ion channel NompC": {"target": "Ion channel NompC (Danio rerio, UniProt Q7T1G6)", "test": "Dose response cell-based high-throughput screening assay for agonists of the transient receptor potential channel N1 (TRPN1). [Related pubchem assays (depositor defined):AID1424, AID1448]", "format": "functional"}, "[16]": {"test": "inhibitors of intracellular T. cruzi replication, confirmation, NIH3T3 host cells, beta-gal luminescence (AID 2044);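 also: luminescent beta-galactosidase reporter signal from transgenic T. cruzi replicating inside host cells; inhibitors lower the luminescence signal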", "format": "functional, cell-based"}, "[17]": {"test": "microbe, parasite or virus in culture", "format": "functional", "conditions": "Mycobacterium tuberculosis"}, "Mucolipin-3": {"target": "T7, Mucolipin-3 (Homo sapiens, UniProt Q8TDD5)", "T7 sequence (Q8TDD5 whole entry)": "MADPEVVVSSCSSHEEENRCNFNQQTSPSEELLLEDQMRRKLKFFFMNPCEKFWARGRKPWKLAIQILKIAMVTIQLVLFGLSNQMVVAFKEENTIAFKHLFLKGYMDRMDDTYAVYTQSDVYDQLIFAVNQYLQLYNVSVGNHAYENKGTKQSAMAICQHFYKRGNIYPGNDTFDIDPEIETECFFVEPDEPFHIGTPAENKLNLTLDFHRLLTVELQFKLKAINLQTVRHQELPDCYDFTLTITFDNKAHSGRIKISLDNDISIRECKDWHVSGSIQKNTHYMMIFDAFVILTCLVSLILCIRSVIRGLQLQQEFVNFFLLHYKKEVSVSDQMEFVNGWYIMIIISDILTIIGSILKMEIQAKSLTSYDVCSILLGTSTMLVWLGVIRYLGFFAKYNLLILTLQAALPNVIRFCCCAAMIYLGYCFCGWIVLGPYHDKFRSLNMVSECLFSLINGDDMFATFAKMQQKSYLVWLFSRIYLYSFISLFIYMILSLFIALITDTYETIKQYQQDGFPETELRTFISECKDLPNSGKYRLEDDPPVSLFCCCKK", "test": "Fluorescence counterscreen assay for […] agonists: dose response cell-based high-throughput screening assay to identify agonists of the transient receptor potential channel ML3 (TRPML3). [Related pubchem assays: 1424, 1448 ]", "format": "functional"}, "[18]": {"test": "cytotoxicity toward NIH3T3 fibroblasts, dose response, counter-screen, cell-based, ATP luminescence, mouse fibroblasts (AID 2010);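 also: cells exposed to compound for about 90 hours before reading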", "format": "functional"}, "BJ [19]": {"tested_on": "BJ", "test": "cytotoxicity toward BJ-TERT-LT-ST fibroblasts, dose response, cell-based, RAS-independent, luminescence (AID 1935);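 also: BJ fibroblasts immortalized with TERT plus LT and ST oncogenes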", "format": "functional", "conditions": "Homo sapiens"}, "[20]": {"test": "cytotoxicity toward DRD oncogenic fibroblasts, dose response, cell-based, non-viral oncogenic, luminescence (AID 1934)", "format": "functional", "conditions": "Homo sapiens"}}, "note": "Calls of active or inactive are those of the source.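 For IC50 Mean in this document: confirmatory dose-response retesting of NadD inhibitor hits first found in an ultra-high-throughput screen.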"}
{"smiles": "O=C(Nc1ccc(S(=O)(=O)Nc2nccs2)cc1)c1cc(-c2ccccc2)nc2ccccc12", "values": [{"measurement": "EC50", "setting": "[1]", "result": "> 32 µM (inactive)"}, {"measurement": "EC50", "setting": "Cannabinoid receptor 1 [2]", "result": "> 32 µM (inactive)"}, {"measurement": "IC50", "setting": "[3]", "result": "> 32 µM (inactive)"}, {"measurement": "IC50", "setting": "Cannabinoid receptor 1 [4]", "result": "4.77 µM (active)"}, {"measurement": "IC50", "setting": "[5]", "result": "5.75 µM (active)"}, {"measurement": "IC50", "setting": "Cannabinoid receptor 2 [6]", "result": "> 32 µM (inactive)"}, {"measurement": "EC50", "setting": "Cannabinoid receptor 2 [7]", "result": "> 32 µM (inactive)"}, {"measurement": "IC50", "setting": "[8]", "result": "6.12 µM (active)"}, {"measurement": "IC50", "setting": "[9]", "result": "20 µM (active)"}]}
{"smiles": "CCOc1ccc2nc(N3C(=O)CNC3=S)sc2c1", "values": [{"measurement": "IC50", "setting": "[10]", "result": "> 32 µM (inactive)"}, {"measurement": "EC50", "setting": "Mu-type opioid receptor", "result": "> 32 µM (inactive)"}, {"measurement": "EC50", "setting": "[11]", "result": "> 32 µM (inactive)"}, {"measurement": "IC50", "setting": "[12]", "result": "16.4 µM (active)"}, {"measurement": "EC50", "setting": "Beta-galactosidase", "result": "> 31.5 µM (inactive)"}, {"measurement": "IC50", "setting": "[13]", "result": "> 32", "unit": "µM"}]}
{"smiles": "CCN(CC)c1ccc(/C=C2\\SC(=O)N(C(C)C)C2=O)o1", "values": [{"measurement": "EC50", "setting": "BJ [14]", "result": "11.7 µM (active)"}, {"measurement": "EC50", "setting": "BJ [15]", "result": "20.5 µM (active)"}, {"measurement": "EC50", "setting": "Ion channel NompC", "result": "> 9.97 µM (inactive)"}, {"measurement": "EC50", "setting": "[16]", "result": "2.09 µM (active)"}, {"measurement": "CC50", "setting": "[17]", "result": "38.7 µM (active)"}, {"measurement": "EC50", "setting": "Mucolipin-3", "result": "> 9.97 µM (not active)"}, {"measurement": "EC50", "setting": "[18]", "result": "18.4 µM (active)"}, {"measurement": "EC50", "setting": "BJ [19]", "result": "> 75 µM (inconclusive)"}, {"measurement": "EC50", "setting": "[20]", "result": "35.7 µM (active)"}]}
{"smiles": "N=c1c(C(=O)NCCN2CCOCC2)cc2c(=O)n3ccccc3nc2n1C1CCCC1", "values": [{"measurement": "EC50", "setting": "[1]", "result": "> 32 µM (inactive)"}, {"measurement": "EC50", "setting": "Cannabinoid receptor 1 [2]", "result": "> 32 µM (inactive)"}, {"measurement": "IC50", "setting": "[3]", "result": "> 32 µM (inactive)"}, {"measurement": "IC50", "setting": "Cannabinoid receptor 1 [4]", "result": "> 32 µM (inactive)"}, {"measurement": "IC50", "setting": "[5]", "result": "> 32 µM (inactive)"}, {"measurement": "IC50", "setting": "Cannabinoid receptor 2 [6]", "result": "> 32 µM (inactive)"}, {"measurement": "EC50", "setting": "Cannabinoid receptor 2 [7]", "result": "8.59 µM (active)"}]}
